Laboratory results from patent US9302999B2, “Substituted triazoles as herbicides” (E. I. DU PONT DE NEMOURS AND COMPANY, priority 2012, dated 2016).

Tests used:
Type in all cases: in vivo
[1] = test system: soybean (Glycine max); assay: Test E pre-/postemergence: soybean; settings: scale 0 to 100
Outline: (§1)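 Preemergence: seeds sown in silt loam soil and treated with test chemicals in non-phytotoxic solvent with surfactant. Postemergence: plants at 2 to 18 cm (1- to 4-leaf stage) in peat/vermiculite medium were sprayed with the same formulations. After 14 to 21 days in greenhouse, injury was rated visually against controls, 0 (no effect) to 100 (complete control).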

[2] = test system: velvetleaf (Abutilon theophrasti); assay: Test E pre-/postemergence: velvetleaf; settings: Preemergence, scale 0 to 100
Text: (§2) Seeds of plant species selected from corn (Zea mays), soybean (Glycine max), velvetleaf (Abutilon theophrasti), lambsquarters (Chenopodium album), poinsettia, wild (wild poinsettia, Euphorbia heterophylla), pigweed, palmer (palmer pigweed, Amaranthus palmeri), waterhemp (common waterhemp, Amaranthus rudis), smartweed (ladysthumb smartweed, Polygonum persicaria), surinam grass (Brachiaria decumbens), crabgrass, large (large crabgrass, Digitaria sanguinalis), crabgrass, Brazil (Brazilian crabgrass, Digitaria horizontalis), panicum, fall (fall panicum, Panicum dichotomiflorum), foxtail, giant (giant foxtail, Setaria faberii), foxtail, green (green foxtail, Setaria viridis), goosegrass (Eleusine indica), johnsongrass (Sorghum halepense), ragweed (common ragweed, Ambrosia elation), barnyardgrass (Echinochloa crus-galli), sandbur (southern sandbur, Cenchrus echinatus), arrowleaf sida (Sida rhombifolia), ryegrass, Italian (Italian ryegrass, Lolium multiflorum), dayflower, (VA) (Virginia dayflower, Commelina virginica), field bindweed (Convolvulus arvensis), cocklebur (common cocklebur, Xanthium strumarium), morningglory (Ipomoea coccinea), nightshade (eastern black nightshade, Solanum ptycanthum), kochia (Kochia scoparia), nutsedge, yellow (yellow nutsedge, Cyperus esculentus) and beggarticks (hairy beggarticks, Bidens pilosa) were planted into a silt loam soil and treated preemergence with test chemicals formulated in a non-phytotoxic solvent mixture which included a surfactant. At the same time, plants selected from these crop and weed species were planted in pots containing a growing medium comprising spaghnum peat moss, vermiculite, wetting agent and starter nutrients and treated with postemergence applications of some of the test chemicals formulated in the same manner. Plants ranged in height from 2 to 18 cm for postemergence treatments (1- to 4-leaf stage).
(§3) Treated plants and controls were maintained in a greenhouse for 14 to 21 days, after which time all species were compared to controls and visually evaluated. Plant response ratings, summarized in Table E, are based on a scale of 0 to 100 where 0 is no effect and 100 is complete control. A dash (-) response means no test result.

[3] = test system: waterhemp (common waterhemp, Amaranthus rudis); assay: Test E pre-/postemergence: waterhemp; settings: scale 0 to 100
Outline: as §1

[4] = test system: smartweed (ladysthumb smartweed, Polygonum persicaria); assay: Test E pre-/postemergence: smartweed; settings: scale 0 to 100
Text: as §2, §3

[5] = test system: crabgrass, Brazil (Brazilian crabgrass, Digitaria horizontalis); assay: Test E pre-/postemergence: crabgrass, Brazil; settings: scale 0 to 100
Outline: as §1

[6] = test system: ragweed (common ragweed, Ambrosia elation); assay: Test E pre-/postemergence: ragweed; settings: Preemergence, scale 0 to 100
Text: as §2, §3

[7] = test system: barnyardgrass (Echinochloa crus-galli); assay: Test E pre-/postemergence: barnyardgrass; settings: scale 0 to 100
Text: as §2, §3

[8] = test system: dayflower, (VA) (Virginia dayflower, Commelina virginica); assay: Test E pre-/postemergence: dayflower, (VA); settings: scale 0 to 100
Outline: as §1

[9] = test system: kochia (Kochia scoparia); assay: Test E pre-/postemergence: kochia; settings: Preemergence, scale 0 to 100
Text: as §2, §3

COc1nn(-c2ccc(C(F)(F)F)cc2)nc1Cc1ccnc(C(F)(F)F)c1 [Compound 15, 4-[[5-methoxy-2-[4-(trifluoromethyl)phenyl]-2H-1,2,3-triazol-4-yl]methyl]-2-(trifluoromethyl)pyridine]
Plant response rating: Soybean ([1]; Preemergence, 16 g ai/ha): 0 | Plant response rating: Soybean ([1]; Preemergence, 31 g ai/ha): 0 | Plant response rating: Soybean ([1]; Preemergence, 62 g ai/ha): 20 | Plant response rating: Soybean ([1]; Preemergence, 125 g ai/ha): 35 | Plant response rating: Soybean ([1]; Preemergence, 250 g ai/ha): 35 | Plant response rating: Velvetleaf ([2]; 16 g ai/ha): 20 | Plant response rating: Velvetleaf ([2]; 31 g ai/ha): 30 | Plant response rating: Velvetleaf ([2]; 62 g ai/ha): 65 | Plant response rating: Velvetleaf ([2]; 125 g ai/ha): 65 | Plant response rating: Velvetleaf ([2]; 250 g ai/ha): 95 | Plant response rating: Waterhemp ([3]; Preemergence, 16 g ai/ha): 98 | Plant response rating: Waterhemp ([3]; Preemergence, 31 g ai/ha): 100 | Plant response rating: Waterhemp ([3]; Preemergence, 62 g ai/ha): 100 | Plant response rating: Waterhemp ([3]; Preemergence, 125 g ai/ha): 100 | Plant response rating: Waterhemp ([3]; Preemergence, 250 g ai/ha): 100 | Plant response rating: Smartweed ([4]; Preemergence, 31 g ai/ha): 60 | Plant response rating: Smartweed ([4]; Preemergence, 62 g ai/ha): 98 | Plant response rating: Smartweed ([4]; Preemergence, 125 g ai/ha): 98 | Plant response rating: Smartweed ([4]; Preemergence, 250 g ai/ha): 100 | Plant response rating: Crabgrass, Brazil ([5]; Preemergence, 16 g ai/ha): 60 | Plant response rating: Crabgrass, Brazil ([5]; Preemergence, 31 g ai/ha): 98 | Plant response rating: Crabgrass, Brazil ([5]; Preemergence, 62 g ai/ha): 100 | Plant response rating: Crabgrass, Brazil ([5]; Preemergence, 125 g ai/ha): 100 | Plant response rating: Crabgrass, Brazil ([5]; Preemergence, 250 g ai/ha): 100 | Plant response rating: Ragweed ([6]; 16 g ai/ha): 0 | Plant response rating: Ragweed ([6]; 31 g ai/ha): 5 | Plant response rating: Ragweed ([6]; 125 g ai/ha): 30 | Plant response rating: Ragweed ([6]; 250 g ai/ha): 60 | Plant response rating: Barnyardgrass ([7]; Preemergence, 16 g ai/ha): 10 | Plant response rating: Barnyardgrass ([7]; Preemergence, 31 g ai/ha): 50 | Plant response rating: Barnyardgrass ([7]; Preemergence, 62 g ai/ha): 85 | Plant response rating: Barnyardgrass ([7]; Preemergence, 125 g ai/ha): 98 | Plant response rating: Barnyardgrass ([7]; Preemergence, 250 g ai/ha): 100 | Plant response rating: Dayflower, VA ([8]; Preemergence, 16 g ai/ha): 5 | Plant response rating: Dayflower, VA ([8]; Preemergence, 31 g ai/ha): 10 | Plant response rating: Dayflower, VA ([8]; Preemergence, 62 g ai/ha): 25 | Plant response rating: Dayflower, VA ([8]; Preemergence, 125 g ai/ha): 60 | Plant response rating: Dayflower, VA ([8]; Preemergence, 250 g ai/ha): 95 | Plant response rating: Kochia ([9]; 16 g ai/ha): 35 | Plant response rating: Kochia ([9]; 31 g ai/ha): 65 | Plant response rating: Kochia ([9]; 62 g ai/ha): 90 | Plant response rating: Kochia ([9]; 125 g ai/ha): 100 | Plant response rating: Kochia ([9]; 250 g ai/ha): 100

Cc1nn(-c2ccc(C(F)(F)F)cc2)nc1Oc1ccnc(C(F)(F)F)c1 [Compound 120]
Plant response rating: Soybean ([1]; Postemergence, 8 g ai/ha): 15 | Plant response rating: Soybean ([1]; Postemergence, 16 g ai/ha): 20 | Plant response rating: Soybean ([1]; Postemergence, 31 g ai/ha): 30 | Plant response rating: Soybean ([1]; Postemergence, 62 g ai/ha): 40 | Plant response rating: Soybean ([1]; Postemergence, 125 g ai/ha): 50 | Plant response rating: Soybean ([1]; Preemergence, 16 g ai/ha): 0 | Plant response rating: Soybean ([1]; Preemergence, 31 g ai/ha): 25 | Plant response rating: Soybean ([1]; Preemergence, 62 g ai/ha): 35 | Plant response rating: Soybean ([1]; Preemergence, 125 g ai/ha): 35 | Plant response rating: Soybean ([1]; Preemergence, 250 g ai/ha): 35 | Plant response rating: Velvetleaf ([2]; 16 g ai/ha): 15 | Plant response rating: Velvetleaf ([2]; 31 g ai/ha): 30 | Plant response rating: Velvetleaf ([2]; 62 g ai/ha): 35 | Plant response rating: Velvetleaf ([2]; 125 g ai/ha): 50 | Plant response rating: Velvetleaf ([2]; 250 g ai/ha): 65 | Plant response rating: Waterhemp ([3]; Postemergence, 8 g ai/ha): 30 | Plant response rating: Waterhemp ([3]; Postemergence, 16 g ai/ha): 50 | Plant response rating: Waterhemp ([3]; Postemergence, 31 g ai/ha): 65 | Plant response rating: Waterhemp ([3]; Postemergence, 62 g ai/ha): 75 | Plant response rating: Waterhemp ([3]; Postemergence, 125 g ai/ha): 75 | Plant response rating: Waterhemp ([3]; Preemergence, 16 g ai/ha): 95 | Plant response rating: Waterhemp ([3]; Preemergence, 31 g ai/ha): 98 | Plant response rating: Waterhemp ([3]; Preemergence, 62 g ai/ha): 100 | Plant response rating: Waterhemp ([3]; Preemergence, 125 g ai/ha): 100 | Plant response rating: Waterhemp ([3]; Preemergence, 250 g ai/ha): 100 | Plant response rating: Smartweed ([4]; Postemergence, 8 g ai/ha): 10 | Plant response rating: Smartweed ([4]; Postemergence, 16 g ai/ha): 10 | Plant response rating: Smartweed ([4]; Postemergence, 125 g ai/ha): 40 | Plant response rating: Crabgrass, Brazil ([5]; Postemergence, 8 g ai/ha): 10 | Plant response rating: Crabgrass, Brazil ([5]; Postemergence, 16 g ai/ha): 15 | Plant response rating: Crabgrass, Brazil ([5]; Postemergence, 31 g ai/ha): 25 | Plant response rating: Crabgrass, Brazil ([5]; Postemergence, 62 g ai/ha): 30 | Plant response rating: Crabgrass, Brazil ([5]; Postemergence, 125 g ai/ha): 40 | Plant response rating: Crabgrass, Brazil ([5]; Preemergence, 16 g ai/ha): 90 | Plant response rating: Crabgrass, Brazil ([5]; Preemergence, 31 g ai/ha): 100 | Plant response rating: Crabgrass, Brazil ([5]; Preemergence, 62 g ai/ha): 100 | Plant response rating: Crabgrass, Brazil ([5]; Preemergence, 125 g ai/ha): 100 | Plant response rating: Crabgrass, Brazil ([5]; Preemergence, 250 g ai/ha): 100 | Plant response rating: Ragweed ([6]; 16 g ai/ha): 0 | Plant response rating: Ragweed ([6]; 31 g ai/ha): 0 | Plant response rating: Ragweed ([6]; 62 g ai/ha): 30 | Plant response rating: Ragweed ([6]; 125 g ai/ha): 35 | Plant response rating: Ragweed ([6]; 250 g ai/ha): 80 | Plant response rating: Barnyardgrass ([7]; Postemergence, 8 g ai/ha): 10 | Plant response rating: Barnyardgrass ([7]; Postemergence, 16 g ai/ha): 10 | Plant response rating: Barnyardgrass ([7]; Postemergence, 31 g ai/ha): 20 | Plant response rating: Barnyardgrass ([7]; Postemergence, 62 g ai/ha): 25 | Plant response rating: Barnyardgrass ([7]; Postemergence, 125 g ai/ha): 30 | Plant response rating: Barnyardgrass ([7]; Preemergence, 16 g ai/ha): 0 | Plant response rating: Barnyardgrass ([7]; Preemergence, 31 g ai/ha): 0 | Plant response rating: Barnyardgrass ([7]; Preemergence, 62 g ai/ha): 5 | Plant response rating: Barnyardgrass ([7]; Preemergence, 125 g ai/ha): 25 | Plant response rating: Barnyardgrass ([7]; Preemergence, 250 g ai/ha): 100 | Plant response rating: Dayflower, VA ([8]; Postemergence, 8 g ai/ha): 10 | Plant response rating: Dayflower, VA ([8]; Postemergence, 16 g ai/ha): 10 | Plant response rating: Dayflower, VA ([8]; Postemergence, 31 g ai/ha): 10 | Plant response rating: Dayflower, VA ([8]; Postemergence, 62 g ai/ha): 10 | Plant response rating: Dayflower, VA ([8]; Postemergence, 125 g ai/ha): 15 | Plant response rating: Dayflower, VA ([8]; Preemergence, 16 g ai/ha): 0 | Plant response rating: Dayflower, VA ([8]; Preemergence, 31 g ai/ha): 0 | Plant response rating: Dayflower, VA ([8]; Preemergence, 62 g ai/ha): 50 | Plant response rating: Dayflower, VA ([8]; Preemergence, 125 g ai/ha): 50 | Plant response rating: Dayflower, VA ([8]; Preemergence, 250 g ai/ha): 50 | Plant response rating: Kochia ([9]; 16 g ai/ha): 0 | Plant response rating: Kochia ([9]; 31 g ai/ha): 20 | Plant response rating: Kochia ([9]; 62 g ai/ha): 50 | Plant response rating: Kochia ([9]; 125 g ai/ha): 90 | Plant response rating: Kochia ([9]; 250 g ai/ha): 100
